# Laboratory results reported in patent publication US20230086007A1, “USE OF DENATONIUM BENZOATE AS A SEED TREATMENT FOR CROPS AS BIRD AND/OR INSECT REPELLENT” (KWS SAAT SE & Co. KGaA, priority 2020, published 2023).
# “Also recorded” adds a separate entry of the source.
# Columns and labels:
# corn seeds = experiment: Phytotoxicity: germination rate (KF) of treated corn seeds; settings: for ΔKF: vs no Bitrex
# Protocol: In order to evaluate the phytotoxicity of different corn seed treatments, safety tests were conducted. Germination rates of corn seeds treated with various concentrations of denatonium benzoate (Bitrex®) [in g per unit, where 1 unit is 50.000 seeds] were counted after five days at 25° C. Cold test germination rates (CT) were counted after 7 days at 10° C. and 5 days at 25° C. The treatments were compared to untreated seeds.
# KF=germination rates counted after 5 days at 25° C. and CT=cold test germination rates counted after 7 days at 10° C. and 5 days at 25° C.
# crows = experiment: Field trials on efficacy as a bird repellent, corn seed, plant stand counts; assay type: in vivo, Corvus; settings: 0.4 g/50.000 seeds with Redigo M or Maxim XL, 0.8 g/50.000 seeds stand-alone, plant stand counts 3 weeks after emergence, listed as denatonium benzoate
# Excerpt: To evaluate the efficacy of different substances as a bird repellent, 25 locations throughout Europe have been identified with a potentially high pressure of bird damage. 17 different substances (DSM RD9103 BRP, Chili extract, Black Cumin oil, Yucca extract, Mentha pulegium extract, Aluminium-Ammonium-sulfate, Hops extract, fat encapsulated plant extracts, alginate encapsulated plant extracts, Tefluthrin, Thiram, Ziram, Methiocarb, yellow colour substance, denatonium benzoate, SatecWFO20, Redigo M, Maxim XL) have been chosen to evaluate differences on feeding behavior of crows. Three chemical references have been included in the trial: Mesurol liquid (Active substance Methiocarb), Korit (Active Substance Ziram) and TMTD (Active Substance Thiram). Mesurol liquid (Methiocarb) was the standard bird repellent in the past, with a European expiry date of the 3rd of April 2020. TMTD (Thiram) can be used until 30th of January 2020. Korit (Ziram) expires in 2021.
# Denatonium benzoate has been tested in 2 different concentrations: 0.4 g/50.000 seeds in combination with standard fungicides Redigo M and Maxim XL and 0.8 g/50.000 seeds as a stand-alone. […]
# 3 weeks after emergence, 9 locations with bird damage have been identified. Plant stand counts have been assessed and summarized.
# [1] = corn Amavit, chemical no, Bitrex 0.2 g/u
# [2] = corn Amavit, chemical no, Bitrex 0.5 g/u
# [3] = corn Amavit, chemical no, Bitrex 1.0 g/u
# [4] = corn Amavit, chemical no, Bitrex 2.0 g/u
# [5] = corn Amavit, chemical no, Bitrex 5.0 g/u
# [6] = corn Amavit, with MaximXL, Bitrex 0.2 g/u
# [7] = corn Amavit, with MaximXL, Bitrex 0.5 g/u
# [8] = corn Amavit, with MaximXL, Bitrex 1.0 g/u
# [9] = corn Amavit, with MaximXL, Bitrex 2.0 g/u
# [10] = corn Amavit, with MaximXL, Bitrex 5.0 g/u
# [11] = corn Amavit, with RedigoM, Bitrex 0.2 g/u
# [12] = corn Amavit, with RedigoM, Bitrex 0.5 g/u
# [13] = corn Amavit, with RedigoM, Bitrex 1.0 g/u
# [14] = corn Amavit, with RedigoM, Bitrex 2.0 g/u
# [15] = corn Amavit, with RedigoM, Bitrex 5.0 g/u
# [16] = corn KXB6432, chemical no, Bitrex 0.2 g/u
# [17] = corn KXB6432, chemical no, Bitrex 0.5 g/u
# [18] = corn KXB6432, chemical no, Bitrex 1.0 g/u
# [19] = corn KXB6432, chemical no, Bitrex 2.0 g/u
# [20] = corn KXB6432, chemical no, Bitrex 5.0 g/u
# [21] = corn KXB6432, with MaximXL, Bitrex 0.2 g/u
# [22] = corn KXB6432, with MaximXL, Bitrex 0.5 g/u
# [23] = corn KXB6432, with MaximXL, Bitrex 1.0 g/u
# [24] = corn KXB6432, with MaximXL, Bitrex 2.0 g/u
# [25] = corn KXB6432, with MaximXL, Bitrex 5.0 g/u
# [26] = corn KXB6432, with RedigoM, Bitrex 0.2 g/u
# [27] = corn KXB6432, with RedigoM, Bitrex 0.5 g/u
# [28] = corn KXB6432, with RedigoM, Bitrex 1.0 g/u
# [29] = corn KXB6432, with RedigoM, Bitrex 2.0 g/u
# [30] = corn KXB6432, with RedigoM, Bitrex 5.0 g/u
# [31] = ø of varieties and chemicals, Bitrex 0.2 g/u
# [32] = ø of varieties and chemicals, Bitrex 0.5 g/u
# [33] = ø of varieties and chemicals, Bitrex 1.0 g/u
# [34] = ø of varieties and chemicals, Bitrex 2.0 g/u
# [35] = ø of varieties and chemicals, Bitrex 5.0 g/u
# [36] = ø of varieties, chemical no, Bitrex 0.2 g/u
# [37] = ø of varieties, chemical no, Bitrex 0.5 g/u
# [38] = ø of varieties, chemical no, Bitrex 1.0 g/u
# [39] = ø of varieties, chemical no, Bitrex 2.0 g/u
# [40] = ø of varieties, chemical no, Bitrex 5.0 g/u
# [41] = ø of varieties, with MaximXL, Bitrex 0.2 g/u
# [42] = ø of varieties, with MaximXL, Bitrex 0.5 g/u
# [43] = ø of varieties, with MaximXL, Bitrex 1.0 g/u
# [44] = ø of varieties, with MaximXL, Bitrex 2.0 g/u
# [45] = ø of varieties, with MaximXL, Bitrex 5.0 g/u
# [46] = ø of varieties, with RedigoM, Bitrex 0.2 g/u
# [47] = ø of varieties, with RedigoM, Bitrex 0.5 g/u
# [48] = ø of varieties, with RedigoM, Bitrex 1.0 g/u
# [49] = ø of varieties, with RedigoM, Bitrex 2.0 g/u
# [50] = ø of varieties, with RedigoM, Bitrex 5.0 g/u
structure (smiles),measurement,setting,value
"CC[N+](CC)(CC(=O)Nc1c(C)cccc1C)Cc1ccccc1.O=C([O-])c1ccccc1 [Bitrex, N-Benzyl-2-(2,6-dimethylanilino)-N, N-diethyl-2-oxoethan-1-aminium benzoate]","KF germination rate, 5 days at 25° C.",corn seeds; [1],98.0%
same,"KF germination rate, 5 days at 25° C.",corn seeds; [2],96.5%
same,"KF germination rate, 5 days at 25° C.",corn seeds; [3],97.5%
same,"KF germination rate, 5 days at 25° C.",corn seeds; [4],97.0%
same,"KF germination rate, 5 days at 25° C.",corn seeds; [5],98.0%
same,"KF germination rate, 5 days at 25° C.",corn seeds; [6],98.0%
same,"KF germination rate, 5 days at 25° C.",corn seeds; [7],98.0%
same,"KF germination rate, 5 days at 25° C.",corn seeds; [8],96.5%
same,"KF germination rate, 5 days at 25° C.",corn seeds; [9],95.5%
same,"KF germination rate, 5 days at 25° C.",corn seeds; [10],97.5%
same,"KF germination rate, 5 days at 25° C.",corn seeds; [11],100.0%
same,"KF germination rate, 5 days at 25° C.",corn seeds; [12],97.5%
same,"KF germination rate, 5 days at 25° C.",corn seeds; [13],96.0%
same,"KF germination rate, 5 days at 25° C.",corn seeds; [14],96.5%
same,"KF germination rate, 5 days at 25° C.",corn seeds; [15],99.5%
same,"KF germination rate, 5 days at 25° C.",corn seeds; [16],92.5%
same,"KF germination rate, 5 days at 25° C.",corn seeds; [17],96.5%
same,"KF germination rate, 5 days at 25° C.",corn seeds; [18],96.5%
same,"KF germination rate, 5 days at 25° C.",corn seeds; [19],96.0%
same,"KF germination rate, 5 days at 25° C.",corn seeds; [20],95.5%
same,"KF germination rate, 5 days at 25° C.",corn seeds; [21],98.5%
same,"KF germination rate, 5 days at 25° C.",corn seeds; [22],99.0%
same,"KF germination rate, 5 days at 25° C.",corn seeds; [23],97.5%
same,"KF germination rate, 5 days at 25° C.",corn seeds; [24],98.0%
same,"KF germination rate, 5 days at 25° C.",corn seeds; [25],97.5%
same,"KF germination rate, 5 days at 25° C.",corn seeds; [26],94.5%
same,"KF germination rate, 5 days at 25° C.",corn seeds; [27],95.5%
same,"KF germination rate, 5 days at 25° C.",corn seeds; [28],96.0%
same,"KF germination rate, 5 days at 25° C.",corn seeds; [29],95.5%
same,"KF germination rate, 5 days at 25° C.",corn seeds; [30],97.0%
same,ΔKF,corn seeds; [1],0.0%
same,ΔKF,corn seeds; [2],−1.5%
same,ΔKF,corn seeds; [3],−0.5%
same,ΔKF,corn seeds; [4],−1.0%
same,ΔKF,corn seeds; [5],0.0%
same,ΔKF,corn seeds; [6],1.5%
same,ΔKF,corn seeds; [7],1.5%
same,ΔKF,corn seeds; [8],0.0%
same,ΔKF,corn seeds; [9],−1.0%
same,ΔKF,corn seeds; [10],1.0%
same,ΔKF,corn seeds; [11],2.0%
same,ΔKF,corn seeds; [12],−0.5%
same,ΔKF,corn seeds; [13],−2.0%
same,ΔKF,corn seeds; [14],−1.5%
same,ΔKF,corn seeds; [15],1.5%
same,ΔKF,corn seeds; [16],−2.0%
same,ΔKF,corn seeds; [17],2.0%
same,ΔKF,corn seeds; [18],2.0%
same,ΔKF,corn seeds; [19],1.5%
same,ΔKF,corn seeds; [20],1.0%
same,ΔKF,corn seeds; [21],0.0%
same,ΔKF,corn seeds; [22],0.5%
same,ΔKF,corn seeds; [23],−1.0%
same,ΔKF,corn seeds; [24],−0.5%
same,ΔKF,corn seeds; [25],−1.0%
same,ΔKF,corn seeds; [26],0.0%
same,ΔKF,corn seeds; [27],1.0%
same,ΔKF,corn seeds; [28],1.5%
same,ΔKF,corn seeds; [29],1.0%
same,ΔKF,corn seeds; [30],2.5%
same,ΔKF,corn seeds; [31],0.3%
same,ΔKF,corn seeds; [32],0.5%
same,ΔKF,corn seeds; [33],0.0%
same,ΔKF,corn seeds; [34],−0.2%
same,ΔKF,corn seeds; [35],0.8%
same,ΔKF,corn seeds; [36],−1.0%
same,ΔKF,corn seeds; [37],0.3%
same,ΔKF,corn seeds; [38],0.8%
same,ΔKF,corn seeds; [39],0.3%
same,ΔKF,corn seeds; [40],0.5%
same,ΔKF,corn seeds; [41],0.7%
same,ΔKF,corn seeds; [42],1.0%
same,ΔKF,corn seeds; [43],−0.5%
same,ΔKF,corn seeds; [44],−0.7%
same,ΔKF,corn seeds; [45],0.0%
same,ΔKF,corn seeds; [46],1.0%
same,ΔKF,corn seeds; [47],0.3%
same,ΔKF,corn seeds; [48],−0.2%
same,ΔKF,corn seeds; [49],−0.2%
same,ΔKF,corn seeds; [50],2.0%
same,"KF germination rate, 5 days at 25° C.",corn seeds; [31],96.9%
same,"KF germination rate, 5 days at 25° C.",corn seeds; [32],97.2%
same,"KF germination rate, 5 days at 25° C.",corn seeds; [33],96.7%
same,"KF germination rate, 5 days at 25° C.",corn seeds; [34],96.4%
same,"KF germination rate, 5 days at 25° C.",corn seeds; [35],97.5%
same,"KF germination rate, 5 days at 25° C.",corn seeds; [36],95.3%
same,"KF germination rate, 5 days at 25° C.",corn seeds; [37],96.5%
same,"KF germination rate, 5 days at 25° C.",corn seeds; [38],97.0%
same,"KF germination rate, 5 days at 25° C.",corn seeds; [39],96.5%
same,"KF germination rate, 5 days at 25° C.",corn seeds; [40],96.8%
same,"KF germination rate, 5 days at 25° C.",corn seeds; [41],98.3%
same,"KF germination rate, 5 days at 25° C.",corn seeds; [42],98.5%
same,"KF germination rate, 5 days at 25° C.",corn seeds; [43],97.0%
same,"KF germination rate, 5 days at 25° C.",corn seeds; [44],96.8%
same,"KF germination rate, 5 days at 25° C.",corn seeds; [45],97.5%
same,"KF germination rate, 5 days at 25° C.",corn seeds; [46],97.3%
same,"KF germination rate, 5 days at 25° C.",corn seeds; [47],96.5%
same,"KF germination rate, 5 days at 25° C.",corn seeds; [48],96.0%
same,"KF germination rate, 5 days at 25° C.",corn seeds; [49],96.0%
same,"KF germination rate, 5 days at 25° C.",corn seeds; [50],98.3%
same,efficiency as corvid repellent for corn,crows,"excellent effect; also recorded: comparable or even better than the best bird repellents like Thiram, Korit and Mesurol"
